In ChEMBL document CHEMBL4619722, “Alanine scan-guided synthesis and biological evaluation of analogues of culicinin D, a potent anticancer peptaibol” (Bioorg Med Chem Lett, 2020):
Square brackets hold non-standard residues; d marks the D form. Peptide text beside a SMILES is read from it. * marks the point of attachment. NH((S)CH(Me)CH2NHC2H4OH) = C[C@@H](CNCCO)N*; Gly(octyl) = CCCCCCCC[C@H](N)C(=O)O; Ac4c = NC1(C(=O)O)CCC1; Ac3c = NC1(C(=O)O)CC1; Aib = CC(C)(N)C(=O)O; Butyryl = CCCC(=O)*; βAla = NCCC(=O)O

What was measured:
Type in all cases: functional, cell-based
NCI-H460 = assay: Antiproliferative activity against human NCI-H460 cells
T47D = assay: Antiproliferative activity against human T47D cells
MDA-MB-468 = assay: Antiproliferative activity against human MDA-MB-468 cells
SK-BR-3 = assay: Antiproliferative activity against human SKBR3 cells

Row | Structure (SMILES) | IC50 (NCI-H460) [nM] | IC50 (T47D) [nM] | IC50 (MDA-MB-468) [nM] | IC50 (SK-BR-3) [nM]
1 | CCCCCCCC[C@H](NC(=O)C(C)(C)NC(=O)C(C)(C)NC(=O)[C@H](CS)NC(=O)[C@@H]1CCCN1C(=O)CCC)C(=O)N[C@@H](CC(C)C)C(=O)NC(C)(C)C(=O)N[C@@H](CC(C)C)C(=O)NCCC(=O)N[C@@H](C)CNCCO (Butyryl-PC[Aib][Aib][Gly(octyl)]L[Aib]L[βAla]-{NH((S)CH(Me)CH2NHC2H4OH)}) | 249 | 166 | 262 | > 1000
2 | CCCCCCCC[C@H](NC(=O)C(C)(C)NC(=O)C(C)(C)NC(=O)[C@H](CCC(=O)O)NC(=O)[C@@H]1CCCN1C(=O)CCC)C(=O)N[C@@H](CC(C)C)C(=O)NC(C)(C)C(=O)N[C@@H](CC(C)C)C(=O)NCCC(=O)N[C@@H](C)CNCCO (Butyryl-PE[Aib][Aib][Gly(octyl)]L[Aib]L[βAla]-{NH((S)CH(Me)CH2NHC2H4OH)}) | > 10000 | > 10000 | > 10000 | > 10000
3 | CCCCCCCC[C@H](NC(=O)C(C)(C)NC(=O)C(C)(C)NC(=O)[C@H](Cc1ccccc1)NC(=O)[C@@H]1CCCN1C(=O)CCC)C(=O)N[C@@H](CC(C)C)C(=O)NC(C)(C)C(=O)N[C@@H](CC(C)C)C(=O)NCCC(=O)N[C@@H](C)CNCCO (Butyryl-PF[Aib][Aib][Gly(octyl)]L[Aib]L[βAla]-{NH((S)CH(Me)CH2NHC2H4OH)}) | 6 | 8 | 7 | 25
4 | CCCCCCCC[C@H](NC(=O)C(C)(C)NC(=O)C(C)(C)NC(=O)CNC(=O)[C@@H]1CCCN1C(=O)CCC)C(=O)N[C@@H](CC(C)C)C(=O)NC(C)(C)C(=O)N[C@@H](CC(C)C)C(=O)NCCC(=O)N[C@@H](C)CNCCO (Butyryl-PG[Aib][Aib][Gly(octyl)]L[Aib]L[βAla]-{NH((S)CH(Me)CH2NHC2H4OH)}) | 133 | 87 | 76 | 310
5 | CCCCCCCC[C@H](NC(=O)C(C)(C)NC(=O)C(C)(C)NC(=O)[C@H](Cc1c[nH]cn1)NC(=O)[C@@H]1CCCN1C(=O)CCC)C(=O)N[C@@H](CC(C)C)C(=O)NC(C)(C)C(=O)N[C@@H](CC(C)C)C(=O)NCCC(=O)N[C@@H](C)CNCCO (Butyryl-PH[Aib][Aib][Gly(octyl)]L[Aib]L[βAla]-{NH((S)CH(Me)CH2NHC2H4OH)}) | 456 | 151 | 136 | > 1000
6 | CCCCCCCC[C@H](NC(=O)C(C)(C)NC(=O)C(C)(C)NC(=O)[C@H](CCSC)NC(=O)[C@@H]1CCCN1C(=O)CCC)C(=O)N[C@@H](CC(C)C)C(=O)NC(C)(C)C(=O)N[C@@H](CC(C)C)C(=O)NCCC(=O)N[C@@H](C)CNCCO (Butyryl-PM[Aib][Aib][Gly(octyl)]L[Aib]L[βAla]-{NH((S)CH(Me)CH2NHC2H4OH)}) | 10 | 8 | 11 | 43
7 | CCCCCCCC[C@H](NC(=O)C(C)(C)NC(=O)C(C)(C)NC(=O)[C@H](Cc1c[nH]c2ccccc12)NC(=O)[C@@H]1CCCN1C(=O)CCC)C(=O)N[C@@H](CC(C)C)C(=O)NC(C)(C)C(=O)N[C@@H](CC(C)C)C(=O)NCCC(=O)N[C@@H](C)CNCCO (Butyryl-PW[Aib][Aib][Gly(octyl)]L[Aib]L[βAla]-{NH((S)CH(Me)CH2NHC2H4OH)}) | 23 | 15 | 21 | 60
8 | CCCCCCCC[C@H](NC(=O)C(C)(C)NC(=O)C(C)(C)NC(=O)[C@H](Cc1ccc(O)cc1)NC(=O)[C@@H]1CCCN1C(=O)CCC)C(=O)N[C@@H](CC(C)C)C(=O)NC(C)(C)C(=O)N[C@@H](CC(C)C)C(=O)NCCC(=O)N[C@@H](C)CNCCO (Butyryl-PY[Aib][Aib][Gly(octyl)]L[Aib]L[βAla]-{NH((S)CH(Me)CH2NHC2H4OH)}) | 71 | 32 | 35 | 155
9 | CCCCCCCC[C@H](NC(=O)C(C)(C)NC(=O)C(C)(C)NC(=O)C1(NC(=O)[C@@H]2CCCN2C(=O)CCC)CC1)C(=O)N[C@@H](CC(C)C)C(=O)NC(C)(C)C(=O)N[C@@H](CC(C)C)C(=O)NCCC(=O)N[C@@H](C)CNCCO (Butyryl-P[Ac3c][Aib][Aib][Gly(octyl)]L[Aib]L[βAla]-{NH((S)CH(Me)CH2NHC2H4OH)}) | 87 | 57 | 64 | 236
10 | CCCCCCCC[C@H](NC(=O)C(C)(C)NC(=O)C(C)(C)NC(=O)C1(NC(=O)[C@@H]2CCCN2C(=O)CCC)CCC1)C(=O)N[C@@H](CC(C)C)C(=O)NC(C)(C)C(=O)N[C@@H](CC(C)C)C(=O)NCCC(=O)N[C@@H](C)CNCCO (Butyryl-P[Ac4c][Aib][Aib][Gly(octyl)]L[Aib]L[βAla]-{NH((S)CH(Me)CH2NHC2H4OH)}) | 19 | 17 | 16 | 68
